Results reported in PMC10564737, “Structure-based design of a phosphotyrosine-masked covalent ligand targeting the E3 ligase SOCS2” (Nature Communications, 2023).
“And” between values parts separate entries of the source, which are not always exact repeats. Identical values can stand only once. Like-named read-outs stand apart in the source and are kept apart here.

Molecular target: T1, SBC2 (Homo sapiens, UniProt O14508)
T1 construct: SOCS2 (amino acids 32–198); His6 (N, cleaved yes); made in house; host or cells: E. coli BL21(DE3)
Test: Covalent fluorescence polarization (FP) probe displacement assay
Assay type: binding
Details: for kinact/KI: read-out: Slope: Kinact/Ki (converted); for Anisotropy based on Raw Data (485): Cycle 7 (30 min); for Fb, fraction bound: Cycle 2 (5 min); for Anisotropy data 485,520,520 / Normalised anisotropy (0 nM MN551 = 1, free probe = 0) / Anisotropy normalised (0 nM MN551 = 1, free probe = 0): n=1
Excerpt: With the specific covalent modification of Cys111 established, we decided to fully characterize MN551 as a covalent SOCS2 inhibitor. […] (Fig. 2g, h, Supplementary Fig. 9). Due to the covalent nature of the competing inhibitor, a time-dependent reduction in the fraction of protein-bound probe is observed. […] This value illustrates reasonable specificity for a covalent inhibitor, with nonetheless scope for future optimization. In addition to characterizing the kinetic covalency parameters, we have also assessed the stability of the MN551 by monitoring its reactivity (half-life >70 min) with reduced glutathione (GSH) (Supplementary Fig. 10)[35].
To monitor the SBC2-ligand binding kinetics we designed a fluorescein-labeled small-molecule probe - compound 26. The fluorescence polarization (anisotropy) of a threefold serial dilution of 50 µM SBC2 in 10 nM of the probe in 100 mM HEPES pH 7.5, 50 mM NaCl, 0.5 mM TCEP, 2% DMSO was measured to determine the KL (Supplementary Fig. 9A) (BMG Labtech PHERAstar – firmware v1.33). Protein titration and the curves were fitted using GraphPad Prism 9, using one-site fitting models to determine the probe binding constant, KL. Samples were run in triplicate in 384 well plates, using a total volume per well of 16 μL. The bound fraction of the probe is measure using the equation:1 Fb=Af−A/Af−Ab Where,
A time-dependent reduction in probe anisotropy were measured for a 2-fold serial dilution of […] compound MN551 in 10 nM probe +300 μM SBC2. To determine the initial reversible binding affinity, the initial bound fraction of the probe at time = 0, Fbo (the y-intercept in Fb v/s Time plot, Supplementary Fig. 9B) was plotted against MN551 concentration, and the obtained IC50 is then converted to Ki (Supplementary Fig. 9C)[17]. The slope from Fb versus time graph when divided by Fbo gives rate of covalency, kobs. A plot of kobs v/s MN551 concentration using Michaelis–Menten model of GraphPad Prism 9, provides the parameters kinact (maximum potential rate of inactivation) and KI (concentration of MN551 at which kobs = kinact/2) (Supplementary Fig. 9D, E).
The observed first-order rate constant, kobs is related to KI and kinact by the equation:2 kobs=kinactI/KI+I
At [I]«[KI] the above equation is converted to3 […]
The slope from the plot of kobs against concentration of MN551 gives us the covalent efficiency parameter kinact/KI (Supp Fig. 9F)[30],[33].

[1] = MN551 12.599 nM, Cycle 11 (50 min)
[2] = MN551 12.599 nM, Cycle 18 (85 min)
[3] = MN551 17.6386 nM, Cycle 11 (50 min)
[4] = MN551 17.6386 nM, Cycle 12 (55 min)
[5] = MN551 17.6386 nM, Cycle 18 (85 min)
[6] = MN551 24.694 nM, Cycle 11 (50 min)
[7] = MN551 24.694 nM, Cycle 12 (55 min)
[8] = MN551 24.694 nM, Cycle 18 (85 min)
[9] = MN551 34.5716 nM, Cycle 11 (50 min)
[10] = MN551 34.5716 nM, Cycle 12 (55 min)
[11] = MN551 34.5716 nM, Cycle 18 (85 min)

T1 sequence (O14508 32-198): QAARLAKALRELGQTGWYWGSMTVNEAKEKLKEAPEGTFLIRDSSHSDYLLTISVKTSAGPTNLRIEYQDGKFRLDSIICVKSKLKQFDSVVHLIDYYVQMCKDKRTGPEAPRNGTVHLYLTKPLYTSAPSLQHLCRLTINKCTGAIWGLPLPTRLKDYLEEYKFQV
T1 sequence (Q15370 1-104 partner limits assumed): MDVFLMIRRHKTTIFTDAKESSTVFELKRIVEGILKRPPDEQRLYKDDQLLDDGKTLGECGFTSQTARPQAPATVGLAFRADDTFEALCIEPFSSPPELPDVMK
T1 sequence (Q15369 17-112 partner limits assumed): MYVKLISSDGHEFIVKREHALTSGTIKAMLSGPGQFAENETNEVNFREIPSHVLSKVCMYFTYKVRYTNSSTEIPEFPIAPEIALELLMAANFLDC

O=C(CCl)Nc1cccc(CNC(=O)[C@H](Cc2ccc(OP(=O)(O)O)cc2)NC(=O)Cc2ccc(F)cc2)c1 [MN551]
kinact (FP competition assay to evaluate MN551 covalent efficiency, experiment n=1, from Michaelis-Menten fit (Vmax), read-out: Kinact (converted)): 0.0145 min⁻¹ | kinact (FP competition assay to evaluate MN551 covalent efficiency, experiment n=1, read-out: Kinact (converted)): 0.0145 min⁻¹ | kinact/KI (FP competition assay to evaluate MN551 covalent efficiency, experiment n=1, slope of linear fit, MN551 below Ki titration): 55.8 M⁻¹ s⁻¹ | kinact/KI (FP competition assay to evaluate MN551 covalent efficiency, experiment n=1, slope of linear fit): 55.8 M⁻¹ s⁻¹ | kinact (FP competition assay, replicate n=3, read-out: Kinact (min-1) (converted)): 0.0174 min⁻¹ | kinact (FP competition assay, replicate n=3, read-out: Kinact (s-1)): 0.0174 min⁻¹ | kinact/KI (FP competition assay, replicate n=3): 61.5 M⁻¹ s⁻¹ | Anisotropy based on Raw Data (485) (MN551 12.207 nM): 281.1 and 280.8 and 279.5 | Fb, fraction bound (MN551 12.207 nM): 0.9935 and 1.0185 and 1.023 | Anisotropy (MN551 12.207 nM, Cycle 11 (50 min)): 276.9 and 277 and 280.3 | Anisotropy data 485,520,520 (MN551 12.207 nM, Cycle 18 (85 min)): 272.5 and 273.4 and 274.8 | Anisotropy based on Raw Data (485) (MN551 12.599 nM): 275 and 272 and 270 | Normalised anisotropy (0 nM MN551 = 1, free probe = 0) (MN551 12.599 nM, Cycle 13 (60 min)): 0.9972 and 0.9668 and 1.008 | Normalised anisotropy (0 nM MN551 = 1, free probe = 0) (MN551 12.599 nM, Cycle 14 (65 min)): 1.04 and 1.018 and 1.012 | Fb, fraction bound (MN551 12.599 nM): 1.02 and 0.9926 and 1.014 | Anisotropy [1]: 278.4 and 278.3 and 275.7 | Fb [1]: 1.027 and 1.013 and 1.017 | Fb (MN551 12.599 nM, Cycle 12 (55 min)): 1.006 and 1.0163 and 0.9962 | Anisotropy data 485,520,520 [2]: 273.9 and 272.6 and 271.8 | Anisotropy normalised (0 nM MN551 = 1, free probe = 0) [2]: 1.0213 and 1.004 and 1.0408 | Anisotropy normalised (0 nM MN551 = 1, free probe = 0) (MN551 12.599 nM, Cycle 19 (90 min)): 1.03 and 1.012 and 1.015 | Anisotropy normalised (0 nM MN551 = 1, free probe = 0) (MN551 12.599 nM, Cycle 20 (95 min)): 0.9942 (2×) and 0.9893 | Anisotropy based on Raw Data (485) (MN551 17.6386 nM): 276.7 and 273.3 and 271.3 | Normalised anisotropy (0 nM MN551 = 1, free probe = 0) (MN551 17.6386 nM, Cycle 13 (60 min)): 1.033 and 0.9926 and 1.023 | Normalised anisotropy (0 nM MN551 = 1, free probe = 0) (MN551 17.6386 nM, Cycle 14 (65 min)): 1.058 and 1.0113 and 1.0096 | Fb, fraction bound (MN551 17.6386 nM): 1.066 and 1.015 and 1.047 | Anisotropy [3]: 282.4 and 277.6 and 277.2 | Fb [3]: 1.065 and 1.007 and 1.031 | Anisotropy [4]: 282.3 and 277.4 and 277.1 | Fb [4]: 1.042 and 1.027 and 1.02 | Anisotropy data 485,520,520 [5]: 277.5 and 272.7 and 272.2 | Anisotropy normalised (0 nM MN551 = 1, free probe = 0) [5]: 1.056 and 1.005 and 1.045 | Anisotropy normalised (0 nM MN551 = 1, free probe = 0) (MN551 17.6386 nM, Cycle 19 (90 min)): 1.075 and 1.012 and 1.027 | Anisotropy normalised (0 nM MN551 = 1, free probe = 0) (MN551 17.6386 nM, Cycle 20 (95 min)): 1.027 and 0.9971 and 1.019 | Anisotropy based on Raw Data (485) (MN551 24.4141 nM): 282.9 and 279.8 and 282 | Fb, fraction bound (MN551 24.4141 nM): 1.016 and 1.08 and 1.041 | Anisotropy (MN551 24.4141 nM, Cycle 11 (50 min)): 280.9 and 281.2 and 279.7 | Anisotropy (MN551 24.4141 nM, Cycle 12 (55 min)): 280 | Anisotropy data 485,520,520 (MN551 24.4141 nM, Cycle 18 (85 min)): 276.9 and 277.7 and 276.3 | Anisotropy based on Raw Data (485) (MN551 24.694 nM): 274.8 and 272.6 and 276.9 | Normalised anisotropy (0 nM MN551 = 1, free probe = 0) (MN551 24.694 nM, Cycle 13 (60 min)): 1.02 and 0.977 and 1.0251 | Normalised anisotropy (0 nM MN551 = 1, free probe = 0) (MN551 24.694 nM, Cycle 14 (65 min)): 1.023 and 1.014 and 1.022 | Fb, fraction bound (MN551 24.694 nM): 1.025 and 1.008 and 1.0546 | Anisotropy [6]: 280.6 and 275.8 and 277.4 | Fb [6]: 1.048 and 0.9896 and 1.033 | Anisotropy [7]: 282.7 and 278.3 and 277.5 | Fb [7]: 1.046 and 1.035 and 1.024 | Anisotropy data 485,520,520 [8]: 274.3 and 273.5 and 273.4 | Anisotropy normalised (0 nM MN551 = 1, free probe = 0) [8]: 1.025 and 1.012 and 1.057 | Anisotropy normalised (0 nM MN551 = 1, free probe = 0) (MN551 24.694 nM, Cycle 19 (90 min)): 1.038 and 1.023 and 1.016 | Anisotropy normalised (0 nM MN551 = 1, free probe = 0) (MN551 24.694 nM, Cycle 20 (95 min)): 1.035 and 1.007 and 1.013 | Anisotropy based on Raw Data (485) (MN551 34.5716 nM): 274.4 and 276.1 and 281.6 | Normalised anisotropy (0 nM MN551 = 1, free probe = 0) (MN551 34.5716 nM, Cycle 13 (60 min)): 1.034 and 1.023 and 1.046 | Normalised anisotropy (0 nM MN551 = 1, free probe = 0) (MN551 34.5716 nM, Cycle 14 (65 min)): 1.052 and 1.027 and 1.028 | Fb, fraction bound (MN551 34.5716 nM): 1.054 and 1.044 and 1.086 | Anisotropy [9]: 283.1 and 279.4 and 279.3 | Fb [9]: 1.072 and 1.024 and 1.051 | Anisotropy [10]: 281.9 and 279 and 279.2 | Fb [10]: 1.038 and 1.042 and 1.04 | Anisotropy data 485,520,520 [11]: 278.1 and 277 and 275.1 | Anisotropy normalised (0 nM MN551 = 1, free probe = 0) [11]: 1.062 and 1.046 and 1.074 | Anisotropy normalised (0 nM MN551 = 1, free probe = 0) (MN551 34.5716 nM, Cycle 19 (90 min)): 1.076 and 1.071 and 1.037 | Anisotropy normalised (0 nM MN551 = 1, free probe = 0) (MN551 34.5716 nM, Cycle 20 (95 min)): 1.051 and 1.0281 and 1.04 | Anisotropy based on Raw Data (485) (MN551 48.4003 nM): 280.1 and 278.6 (2×) | Normalised anisotropy (0 nM MN551 = 1, free probe = 0) (MN551 48.4003 nM, Cycle 13 (60 min)): 1.018 and 0.9871 and 0.9961 | Normalised anisotropy (0 nM MN551 = 1, free probe = 0) (MN551 48.4003 nM, Cycle 14 (65 min)): 1.029 and 1 and 1.015
